Reference: patent US4992448A, “Benzocycloalkylaminopyridinamines and related compounds as topical antiinflammatory agents for the treatment of skin disorders” (Hoechst-Roussel Pharmaceuticals Inc., priority 1989, dated 1991)

Tests used:
[1] = test system: ear edema induced by topical application of TPA; assay: TPA-Induced Ear Edema (TPAEE); format: in vivo, Female Swiss WEbster mice; conditions: for TPAEE (10 μg): 10 μg/ear test compound topical, TPA 10 μg/ear, ear punch weight after five hours
Experimental: TPA-Induced Ear Edema (TPAEE) The purpose of this assay was to determine the ability of a topically-applied compound to prevent ear edema induced by topical application of TPA (phorbol 12/myristate acetate). Female Swiss WEbster mice topically received TPA (10μg/ear) on the right ear and vehicle on the left ear. The test compound (10μg/ear) was applied to both ears. After five hours, the animals were sacrificed and an ear punch (4 mm) was taken from each ear. The difference in right and left ear punch weights for each animal was determined to uses activity. […] See Yound, J. M. et. al., J. Invest.

porcine pancreatic PLA2 = porcine pancreatic PLA2 (Sus scrofa, UniProt P00592); assay: In Vitro Phospholipase A2 Assay (PLA2); format: biochemical; conditions: 0.01 M test compound; porcine pancreatic PLA2 (3.2 units), pH 8.0, 37° C.
Chain of porcine pancreatic PLA2 (P00592 23-146): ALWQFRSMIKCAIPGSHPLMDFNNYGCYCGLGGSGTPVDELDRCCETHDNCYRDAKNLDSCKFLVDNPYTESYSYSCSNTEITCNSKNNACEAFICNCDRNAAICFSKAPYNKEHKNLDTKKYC
Experimental: In Vitro Phospholipase A2 Assay (PLA2) The ability of a compound to modulate PLA2 activity (clevage of ^14 -dipalmitoyl phosphotidylcholine at the 2-position to ^14 C-palmitic acid) was quantitated in this assay. […] The reaction was run at 37° C. in a shaking incubator. The reaction was quenched and an internal standard was added in order to determine sample recovery. The samples were loaded onto D18 columns, eluted with ethanol, and the radioactivity was then measured.

[2] = test system: Phospholipase A2 -induced paw edema; assay: Phospholipase A2-induced Paw Edema (PIPE); format: in vivo, male Wistar rats; conditions: for PIPE (0.1 M), difference in edema vs. control: 0.1 M test compound injected with PLA2 (3 units/paw), subplantar, rat left hind paw, two hours post administration
Experimental: Phospholipase A2 -induced Paw Edema (PIPE) A2 -induced paw edema in male Wistar rats (100-125 g) was measured. PLA2 (3 units/paw) alone or with 0.1 M of the test compound was injected in the subplantar region of the rat left hind paw. Immediately subsequent to the injection and at two hours post administration the paw was immersed in a mercury bath, and paw displacement was measured on a recorder via a transducer. […] See Giessler, A. J. et. al., Agents and Actions, Vol. 10, Trends in Inflammation Research (1981), p. 195.

## Nc1cc[n+]([O-])cc1N1CCc2ccccc2C1
[1]
  TPAEE (10 μg): -45%
Porcine pancreatic PLA2
  inhibition at 10000 µM: 59%
[2]
  PIPE (0.1 M), difference in edema vs. control: -42%

## Nc1cnccc1N1CCc2ccccc21 [1-(3-Amino-4-pyridinyl)-2,3-dihydro-1H-indole]
[1]
  TPAEE (10 μg): -74%
Porcine pancreatic PLA2
  inhibition at 10000 µM: 42%
[2]
  PIPE (0.1 M), difference in edema vs. control: -34%

## Nc1ccncc1N1CCc2ccccc21 [1-(4-Amino-3-pyridinyl)-2,3-dihydro-1H-indole]
[1]
  TPAEE (10 μg): -35%
Porcine pancreatic PLA2
  inhibition at 10000 µM: 85%
[2]
  PIPE (0.1 M), difference in edema vs. control: -33%

## C[C@]12CCC(=O)C=C1CC[C@@H]1[C@@H]2[C@@H](O)C[C@@]2(C)[C@H]1CC[C@]2(O)C(=O)CO [hydrocortisone, reference compound]
[1]; standard, TPA-induced mouse ear edema, topical
  ED50 (TPAEE standard): 47 μg/ear
[2]; standard, PLA2-induced rat paw edema
  ED50 (PIPE standard): 0.46 M
